This is an account of results in the Deep4Chem optical property database.

Molecules are shown by their SMILES.

The series is described as follows: photoluminescence quantum yield (fraction); solvent given as SMILES.

Turning to `CCn1c2ccccc2c2cc(-c3cc(-c4ccc5c(c4)c4ccccc4n5CC)nc(SC)n3)ccc21`, the photoluminescence quantum yield reads like this: (in C1CCOC1) 0.23; (in CCOC(C)=O) 0.39; (in CN(C)C=O) 0.46; (in Cc1ccccc1) 0.35; (in ClCCl) 0.31.
`C1=Cc2ccccc2C(=Cc2ccc(-c3ccc(C=C4c5ccccc5C=Cc5ccccc54)cc3)cc2)c2ccccc21` came in with a photoluminescence quantum yield (in C1CCOC1) of 0.00012.
For the compound `CN(C)c1ccc(/C=C/C=C/c2nc3ccccc3o2)cc1`, the photoluminescence quantum yield (in CC#N) was 0.0055; the photoluminescence quantum yield (in CCCCCC) amounted to 0.0176; the photoluminescence quantum yield (in CCCCO) amounted to 0.0045; the photoluminescence quantum yield (in CCCO) was 0.0045; the photoluminescence quantum yield (in CCO) was 0.0048; the photoluminescence quantum yield (in CN(C)C=O) stood at 0.007. Moreover, the photoluminescence quantum yield runs as follows: (in CO) 0.0045; (in Cc1ccccc1) 0.0078; (in ClCCl) 0.0048; (in OCC(O)CO) 0.0359; (in OCCO) 0.0088.
As for `c1ccc(-c2ccc(-c3nc(-n4c5ccccc5c5ccc6c7ccccc7n(-c7ccccc7)c6c54)nc(-n4c5ccccc5c5ccc6c7ccccc7n(-c7ccccc7)c6c54)n3)cc2)cc1`, the photoluminescence quantum yield (in Cc1ccccc1) is 0.1.
Still for that read-out and setting: with `CC(C)(C)c1ccc(N2c3ccc(C(C)(C)C)cc3B3c4cc(C(C)(C)C)ccc4N(c4ccc(C(C)(C)C)cc4)c4cc(-n5c6ccc(C(C)(C)C)cc6c6cc(C(C)(C)C)ccc65)cc2c43)cc1` the figure was 0.975.
Where the note is “in ClCCl”, `Cc1cc2ccccc2c2c1c1ccccc1n2C(=O)OC(C)(C)C` came in with a photoluminescence quantum yield of 0.185.
Take `O=S1c2ccc(-c3c4ccccc4cc4ccccc34)cc2-c2cc(-c3c4ccccc4cc4ccccc34)ccc21`: the photoluminescence quantum yield reads like this: (in C1CCCCC1) 0.31; (in CC#N) 0.14; (in ClCCl) 0.27.
In turn, `CC(C)(C)c1ccc(-c2c(-c3ccc(-n4c5ccccc5c5ccccc54)cc3)cc(-c3ccc(-n4c5ccccc5c5ccccc54)cc3)c(-c3ccc(C(C)(C)C)cc3)c2-c2ccc(C(C)(C)C)cc2)cc1` displayed a photoluminescence quantum yield (in C1CCOC1) of 0.343.
Compound `COc1ccc2c(C=C(C#N)C#N)cc3ccc4cc(C=C(C#N)C#N)c5ccc(OC)cc5c4c3c2c1` yielded a photoluminescence quantum yield (in ClC(Cl)Cl) of 0.23.
Still for that read-out and setting: with `CC1=CC(C)=[N+]2C1=C(c1ccc(I)cc1)c1c(C)cc(C)n1[B-]2(Oc1ccccc1)Oc1ccccc1` the figure was 0.06.
For the setting “in CCO”, `CCOC(=O)c1cc(C(=O)OCC)c2cc(C)ccc2n1` yielded a photoluminescence quantum yield of 0.022.
Turning to `CC(C)Oc1ccc(C#Cc2ccc3ccc(=O)oc3c2)cc1`, the photoluminescence quantum yield (in CC#N) was 0.034.
Same read-out and setting: with `CN1/C(=C\C=C\C2=C3C=CC(c4ccccc4)=[N+]3[B-](F)(F)n3c2ccc3-c2ccccc2)Sc2ccccc21` the figure was 0.1.
As to `O=Cc1ccc(C2=Cc3ccccc3P2(=O)c2ccccc2)cc1` (configuration not stated), the photoluminescence quantum yield (in ClCCl) is 0.056.
The compound `Cc1ccc(-c2nc(-c3ccccc3O)[nH]c2-c2ccc(C)cc2)cc1` registered a photoluminescence quantum yield (in CO) of 0.28.
Turning to `Cc1cc(C)c(B(c2ccc(-c3ccc4ccc5cccc6ccc3c4c56)cc2)c2c(C)cc(C)cc2C)c(C)c1`, the photoluminescence quantum yield (in Cc1ccccc1) was found to be 0.61.
On to `CSc1ccc(/C=C/c2ccncn2)cc1`, for which the photoluminescence quantum yield (in ClCCl) was 0.01.
Turning to `CC1(C)CC(/C=C/c2ccc(-n3c4ccccc4c4ccccc43)cc2)=CC(=C(C#N)C#N)C1`, the photoluminescence quantum yield (in CCO) turned out to be 0.005.
On to `CCOC(=O)c1c2c3c(ccc(Cl)c3c3cc4c(cc13)[Si](C)(C)O[Si]4(C)C)N(C)C2=O`, for which, where the note is “in CC#N”, the photoluminescence quantum yield came to 0.45.
On to `Cn1c2ccccc2c2cc(/C=C/C3=[O+][B-](F)(F)OC(/C=C/c4ccc5c(c4)c4ccccc4n5C)=C3c3ccccc3)ccc21`, for which the photoluminescence quantum yield (in ClCCl) came to 0.6.
In turn, `COc1cc2c3c(c4cc(OC)c(OC)c(OC)c4c2c(OC)c1OC)=[N+]1C(=C(c2c(C)cc(C)cc2C)c2cc4c5cc(OC)c(OC)c(OC)c5c5c(OC)c(OC)c(OC)cc5c4n2[B-]1(F)F)C=3` returned a photoluminescence quantum yield (in C1CCCCC1) of 0.1; a photoluminescence quantum yield (in C1CCOC1) of 0.001; a photoluminescence quantum yield (in CC#N) of 0.001; a photoluminescence quantum yield (in Cc1ccccc1) of 0.001; a photoluminescence quantum yield (in ClCCl) of 0.001.
Regarding `CCn1c2ccccc2c2cc(C#Cc3cc(C#Cc4ccc5c(c4)c4ccccc4n5CC)nc(SC)n3)ccc21`, the photoluminescence quantum yield reads like this: (in C1CCOC1) 0.61; (in CCOC(C)=O) 0.62; (in CN(C)C=O) 0.56; (in Cc1ccccc1) 0.53; (in ClCCl) 0.64.
Consider `COc1cccc2cc(C)c3c4ccccc4[nH]c3c12`, for which the photoluminescence quantum yield (in ClCCl) worked out at 0.284.
Consider `COc1cc(-c2nc3c4cccnc4c4ncccc4c3[nH]2)c(OC)cc1/C=C/c1ccncc1`, for which the photoluminescence quantum yield is, setting by setting: (in C1CCOC1) 0.79; (in CC#N) 0.48; (in CN(C)C=O) 0.59; (in Cc1ccccc1) 0.34.
`CCOC(=O)c1ccc2c(c1)sc1c3ccc(C(=O)OCC)cc3n(C)c21` came in with a photoluminescence quantum yield (in CCCO) of 0.65.
For the compound `Cc1cc(C)c([B-]2(c3c(C)cc(C)cc3C)[O+]=P(c3ccccc3)(c3ccccc3)c3cc(C#Cc4ccccc4)sc3-c3sc(C#Cc4ccccc4)cc32)c(C)c1`, the photoluminescence quantum yield (in C1CCOC1) worked out at 0.063.
The compound `Cc1nc(-c2cc(F)ccc2O)n2c1CCCC2` yielded a photoluminescence quantum yield (in ClCCl) of 0.72.
Compound `c1ccc(N(c2ccccc2)c2ccc(-c3ncc(-c4ccc(-c5cnc(-c6ccc(N(c7ccccc7)c7ccccc7)cc6)s5)s4)s3)cc2)cc1` came in with a photoluminescence quantum yield (in CO) of 0.16.
As to `C[C@]12C(=O)NC(=O)N([C@H]3CC(O)[C@@H](CO)O3)[C@H]1[C@H]1Oc3cc4oc(=O)ccc4cc3[C@H]12` (some centres not stated), the photoluminescence quantum yield reads like this: (in CC(C)O) 0.003; (in CCO) 0.005; (in CCOCC) 0.001; (in CO) 0.007; (in O) 0.044.
Turning to `Clc1ccc(/C=C/c2nc3ccccc3o2)cc1`, the photoluminescence quantum yield is, setting by setting: (in C1CCCCC1) 0.14; (in CO) 0.02.
Take `c1ccc(-c2nc(-c3ccc(-c4ccc(-c5ccc(-c6nc(-c7ccccc7)c(-c7ccccc7)o6)cc5)cc4)cc3)oc2-c2ccccc2)cc1`: the photoluminescence quantum yield (in C1COCCO1) was 0.73.
Regarding `CCCC1(CCC)c2ccccc2-c2ccc(-c3ccc(OC)cc3)cc21`, the photoluminescence quantum yield (in C1CCCCC1) came to 0.41.
Regarding `C[n+]1ccn(CCCCc2ccc3c(c2)c2ccccc2n3-c2cc(C#N)c(C#N)cc2F)c1`, where the note is “in CC#N”, the photoluminescence quantum yield came out at 0.029.
For `COC1=[N+]2C(=C(c3ccccc3)c3ccc(OC)n3[B-]2(F)F)C=C1`, the photoluminescence quantum yield was 0.11 (in CC#N); 0.12 (in CCCCCC); 0.11 (in CCOC(C)=O); 0.14 (in CO); 0.2 (in ClCCl).
As for `CCCCCCCCc1ccc(-c2c3cc(-c4cc(CCCCCCCC)c(-c5ccc(-c6sc(/C=C7\SC(SCC)=NC7=O)cc6CCCCCCCC)s5)s4)sc3c(-c3ccc(CCCCCCCC)s3)c3cc(-c4cc(CCCCCCCC)c(-c5ccc(-c6sc(/C=C7\SC(SCC)=NC7=O)cc6CCCCCCCC)s5)s4)sc23)s1`, the photoluminescence quantum yield (in C1CCOC1) stood at 0.078 and the photoluminescence quantum yield (in ClC(Cl)Cl) worked out at 0.037.
With `CC1=CC(/C=C/c2ccc([N+](C)(C)C)cc2)=[N+]2C1=C(c1ccc(I)cc1)c1c(C)cc(/C=C/c3ccc([N+](C)(C)C)cc3)n1[B-]2(F)F`, the photoluminescence quantum yield (in CC#N) was determined as 0.69.
`CCOC(=O)c1ccc2c(c1)[nH]c1c3ccc(C(=O)OCC)cc3[se]c21`: the photoluminescence quantum yield (in CCCO) amounted to 0.017.
As for `Cc1c(C)n2c(COC(=O)c3ccccc3O)c(C)c(=O)n2c1=O`, where the note is “in CCO”, the photoluminescence quantum yield stood at 0.641.
Take `O=C([O-])c1ccccc1-c1c2ccc(=O)cc-2oc2cc([O-])ccc12`: the photoluminescence quantum yield (in O) came out at 0.95.
In turn, `c1cnc(-c2c3ccccc3c(-c3ncccn3)c3ccccc23)nc1` showed a photoluminescence quantum yield (in ClCCl) of 0.79.
On to `COc1ccc(-c2nc(C(C)=O)c(C)o2)cc1`, for which the photoluminescence quantum yield was 0.056 (in CC#N); 0.053 (in CCO); 0.134 (in CCOC(C)=O); 0.019 (in CCOCC); 0.051 (in ClCCl).
As to `NCCCCCCCCCCCCN1C(=O)c2ccc3c4ccc5c6c(ccc(c7ccc(c2c37)C1=O)c64)C(=O)N(CCCCCCCCCCCCN)C5=O`, under “in CN(C)C=O”, the photoluminescence quantum yield is 0.83.
For `[O-][n+]1c(/C=C/c2ccccc2)nc(Nc2ccccc2)c2c1CCCC2`, for the setting “in ClCCl”, the photoluminescence quantum yield stood at 0.16.
The same measure, in the same setting: the same measure for `C[Si]1(C)c2cc(-c3ccc(-c4cccs4)s3)ccc2C=Cc2ccc(-c3ccc(-c4cccs4)s3)cc21`: 0.46.
Compound `CNc1cccc2c1-c1ccccc1C2=O` gave a photoluminescence quantum yield (in C1CCCCC1) of 0.094, a photoluminescence quantum yield (in CC#N) of 0.0051, a photoluminescence quantum yield (in CCO) of 0.00014 and a photoluminescence quantum yield (in c1ccccc1) of 0.063.
Consider `CCCCCC(=O)c1cccc2sc3c(c12)P(=O)(c1ccccc1)c1ccccc1-3` (configuration not stated), for which, where the note is “in ClCCl”, the photoluminescence quantum yield was 0.13.
As for `COc1ccc(/C=C/c2cc(/C=C/c3ccc(OC)cc3)nc(/C=C/c3ccc(N(c4ccccc4)c4ccccc4)cc3)n2)cc1`, the photoluminescence quantum yield (in ClCCl) stood at 0.1.
In the case of `CN1C(=CC2=C([O-])C(=CC3=[N+](C)c4ccc(Cl)cc4C3(C)C)C2=O)C(C)(C)c2cc(Cl)ccc21`, the photoluminescence quantum yield (in CC(C)O) is 0.1.
Turning to `c1ccc(-c2ccc(-c3ccc(-n4c5ccccc5c5ccccc54)cc3)c3nsnc23)cc1`, the photoluminescence quantum yield is 0.426 (in C1CCOC1), 0.059 (in CC(C)=O), 0.697 (in CCCCCC) and 0.599 (in CCOCC).
`COc1ccc(C2=C(c3ccccc3)C(c3ccccc3)=[N+]3C2=Nc2c(-c4ccc(OC)cc4)c(-c4ccccc4)c(-c4ccccc4)n2[B-]3(F)F)cc1` had a photoluminescence quantum yield (in Cc1ccccc1) of 0.04.
